Assay results reported in PubChem BioAssay (NCI).
Where “and” joins values, the source holds several entries; their conditions need not be identical. Equal entries are not always repeated.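 1) Cells in 96-well plates. 2) Compound, 48 h, 5 concentrations. 3) Linear interpolation between surrounding doses. 4) Unreached endpoint = highest concentration. Here, GI50 denotes the concentration required for 50% inhibition of growth. TGI is the concentration that stops growth completely.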

Experiments:
Assay in all cases: NCI-60 cell line screen, 48 h
HT29 colon = tested on: HT29 colon
NCI-H460 lung = tested on: NCI-H460 lung
SNB-75 CNS = tested on: SNB-75 CNS
COLO 205 colon = tested on: COLO 205 colon
RXF 393 renal = tested on: RXF 393 renal
MALME-3M melanoma = tested on: MALME-3M melanoma
U251 CNS = tested on: U251 CNS
786-0 renal = tested on: 786-0 renal
SK-MEL-28 melanoma = tested on: SK-MEL-28 melanoma
IGROV1 ovarian = tested on: IGROV1 ovarian

SMILES | TGI (HT29 colon) | TGI (NCI-H460 lung) | TGI (SNB-75 CNS) | TGI (COLO 205 colon) | TGI (RXF 393 renal) | TGI (MALME-3M melanoma) | TGI (U251 CNS) | TGI (786-0 renal) | TGI (SK-MEL-28 melanoma) | TGI (IGROV1 ovarian) [µM] | GI50 (HT29 colon) [µM] | GI50 (SNB-75 CNS) [µM] | GI50 (COLO 205 colon) [µM] | GI50 (RXF 393 renal) [µM] | GI50 (MALME-3M melanoma) [µM] | GI50 (SK-MEL-28 melanoma) [µM]
COc1cc(C2c3cc4c(cc3OC(NNc3ccccc3)C2C)OCO4)cc(OC)c1O (stereo unspecified) | 16.7 µM | 17.7 µM | 7.56 µM | 17.9 µM | 13.7 µM | 11 µM | 16.3 µM | 15.6 µM | 21.3 µM | 24.6 | – | – | – | – | – | –
NCCN(CCN)/[N+]([O-])=N/O | > 100 µM | > 100 µM | > 100 µM | > 100 µM | > 100 µM | > 100 µM | > 100 µM | > 100 µM | > 100 µM | > 100 | – | – | – | – | – | –
Cc1csc2c(=O)n(COCc3ccccc3)c(=O)[nH]c12 | > 100 µM | > 100 µM | > 100 µM | > 100 µM | > 100 µM | > 100 µM | > 100 µM | > 100 µM | > 100 µM | > 100 | – | – | – | – | – | –
NC(CS)C(=O)NCCNc1ccc(NCCNC(=O)C(N)CS)c2c1C(=O)c1c(O)ccc(O)c1C2=O (stereo unspecified) | 1.08 µM and 0.689 µM | 0.208 µM and 0.125 µM | 0.2 µM and 0.206 µM | 1.83 µM and 1.12 µM | 0.554 µM and 0.455 µM | 1.27 µM and 1.24 µM | 0.136 µM and 0.117 µM | 0.0831 µM and 0.0438 µM | 2 µM and 1.81 µM | 1.47 | 0.0454 | 0.0146 | 0.136 | 0.103 | 0.0818 | 0.43
O=[N+]([O-])c1ccc2c(N=Nc3ccc4ccccc4c3O)c(O)cc(S(=O)(=O)O)c2c1 | > 100 µM | > 100 µM | > 93.6 µM | > 82.9 µM | > 100 µM | 85 µM | > 100 µM | > 81.1 µM | > 100 µM | > 61.9 | – | – | – | – | – | –
C[C@]12CCC(=O)C=C1CC[C@@H]1C2CC[C@@]2(C)C1CC[C@@H]2OC(=O)C12OC1CCC2=O (stereo partly specified) | 33.4 µM | 31.8 µM | 33.9 µM | 34.4 µM | 16.8 µM | 33.9 µM | 29.1 µM | 30 µM | 31.6 µM | 23.6 | – | – | – | – | – | –
O=C1C(c2c(O)[nH]c3ccc(I)cc23)=Nc2ccccc21 | > 100 µM | > 88.6 µM | 17 µM | > 100 µM | 34.6 µM | > 86.1 µM | 7.36 µM | 4.39 µM | > 86.3 µM | 9.24 | – | – | – | – | – | –
CC(=O)CC12NC(=O)N(C)N=C1N(C)C(=O)N(C)C2=O (stereo unspecified) | > 100 µM | > 100 µM | > 100 µM | > 100 µM | > 100 µM | 26.5 µM | > 100 µM | > 100 µM | > 100 µM | > 100 | – | – | – | – | – | –
Cc1cc(=O)[nH]c(NNC(C#N)c2ccc(N(C)C)cc2)n1 (stereo unspecified) | > 100 µM | > 100 µM | > 100 µM | > 100 µM | > 100 µM | > 100 µM | > 100 µM | > 100 µM | > 100 µM | > 100 | – | – | – | – | – | –
N#Cc1c(O)c(C=O)c(=O)n2c1[nH]c1ccccc12 | > 100 µM | > 100 µM | > 100 µM | > 100 µM | > 100 µM | > 100 µM | > 100 µM | > 100 µM | > 100 µM | > 100 | – | – | – | – | – | –
COC(=O)[C@@H](NC(=O)c1ccc(CNC(=O)/C(C)=C/c2ccccc2)cc1)C(C)C | > 100 µM | > 100 µM | > 100 µM | > 100 µM | > 100 µM | > 100 µM | > 100 µM | > 100 µM | > 100 µM | > 100 | – | – | – | – | – | –
COc1ccc2nc3c([N+](=O)[O-])ccc(NCCCN(C)C)c3c(N)c2c1 | 2.31 µM | 2.59 µM | 3.47 µM | 2.29 µM | 2.81 µM | 3.1 µM | 3.02 µM | 2.6 µM | 3.04 µM | 2.85 | – | – | – | – | – | –
O=C1CCc2ccccc2O1 | > 100 µM | > 100 µM | > 100 µM | > 100 µM | > 100 µM | > 100 µM | > 100 µM | > 100 µM | > 100 µM | > 100 | – | – | – | – | – | –
Clc1ccc(Nc2nnc(CNc3ccc(-c4nnc(Nc5ccc(Cl)cc5)o4)cc3)o2)cc1 | 33.1 µM | 41.6 µM | 45.1 µM | 36.3 µM | 34.6 µM | 28.5 µM | 23.2 µM | 21.8 µM | 34.7 µM | 30.4 | – | – | – | – | – | –
CON(C(=O)OC(C)(C)C)c1ccccc1 | > 100 µM | > 100 µM | > 100 µM | > 100 µM | > 100 µM | > 100 µM | > 100 µM | > 100 µM | > 100 µM | > 100 | – | – | – | – | – | –
COc1cc(/C=C/C2=NN(c3cccc(S(=O)(=O)O)c3)C3(C2)SCC(=O)N3c2nc3ccccc3s2)cc(OC)c1OC (stereo unspecified) | > 100 µM | > 100 µM | > 100 µM | > 100 µM | > 100 µM | > 100 µM | > 100 µM | 37.5 µM | > 100 µM | > 100 | – | – | – | – | – | –
O=C(c1cccnc1)N1N=C(c2ccc3c(c2)OCO3)CC1(O)c1cc(F)c(Cl)cc1Cl (stereo unspecified) | 35.9 µM | 36.9 µM | 39.8 µM | 31.2 µM | 26.1 µM | 54.1 µM | 32.9 µM | 35.2 µM | 77.5 µM | 34.1 | – | – | – | – | – | –
CC(C)(/C=N/O)/[N+]([O-])=C/c1ccccc1 | > 100 µM | > 100 µM | > 100 µM | > 100 µM | > 100 µM | > 100 µM | > 100 µM | > 100 µM | > 100 µM | > 100 | – | – | – | – | – | –
CC(=O)OC12OC(C)(C3C(=O)N(c4ccccc4)C(=O)C31)N(c1ccccc1)C2=O (stereo unspecified) | > 100 µM | > 100 µM | > 100 µM | > 100 µM | > 100 µM | > 100 µM | > 100 µM | > 100 µM | > 100 µM | > 100 | – | – | – | – | – | –
